Results on 1 compound are retold here after patent US8722714B2, “Oxazolidine derivatives as NMDA antagonists” (The Honk Kong University of Science and Technology, priority 2008, dated 2014).

Structures are written as SMILES.

In the test the test system is MCAO rats. Kind of test: Middle cerebral artery occlusion (MCAO) model: mNSS, infarct volume, edema volume. The format is in vivo, rat. Conditions: for edema volume (% of the ipsilateral hemisphere) / infarct volume: 2 h MCAO; for infarct volume: mean±S.E.M. Here is the method: Before surgery, male rats were 259-354 g fasted overnight with free access to water. Briefly, rats were anesthetized with chloral hydrate (400 mg/kg, ip). Through a midline neck incision, the right common and external carotid artery were isolated from muscles and coagulated. A suture with a blunted tip was inserted into the internal carotid through the external carotid artery stump and advanced up to 21 mm or till resistance was […]. A thermostatically regulated heating pad was used to maintain temperature at 37° C. After 2 h of MCAO, the suture was removed to restore blood flow. In sham group, the same surgical procedure was performed except that the suture was introduced into the external carotid artery but not advanced. After surgery, the incision was sutured and the rats were returned to their cage with free access to water and food.
Neurological function of ischemic rats was graded on modified Neurological Severity Score (mNSS) system in a range of 0 to 18 (normal score, 0; maximal deficit score, 18). The mNSS system is a composite evaluation of motor and sensory function, balance impairment and reflex abnormality of ischemic animals (Chen et al., 2001 Intravenous administration of human umbilical cord blood reduces behavioral deficits after stroke in rats. Stroke 32:2682-8.). In the severity scores of injury, 1 score point is awarded for the inability to perform the test or for the lack of a tested reflex; thus, the higher the score, the more severe is the injury.
At 3 days after ischemia, whole brains were rapidly removed. The brain were sliced into 2-mm-thick coronal sections and stained with 1% 2,3,5-triphenyltetrazoliumchloride (TTC, Sigma) at 37° C. for 30 minutes in the dark, followed by fixation with 4% paraformaldehyde (PFA) at 4° C. overnight. The sections were scanned with scanner connected to a computer. The unstained areas, defined as infarct tissue, were calculated by using an image analysis program. The infarct volume was calculated by measuring the unstained area in each slice. The infarct area in each slice was calculated by subtracting the normal ipsilateral (ischemic) area from that of the contralateral (non-ischemic) hemisphere to reduce errors due to cerebral edema and was presented as a percentage relative to the area of the contralateral hemisphere.
The contralateral hemispheric volume was used as a control for calculation of ischemia-induced brain edema in the ipsilateral hemisphere. A net difference in hemispheric volumes was gained by subtracting the volume of the […] from that of the infracted hemisphere. Brain swelling was expressed as a percentage of the net difference in ischemic hemispheric volume over the contralateral hemispheric volume.
Rats were subjected to middle cerebral artery occlusion (MCAO) to induce focal cerebral ischemia. Neurological functions of these ischemic rats were then graded on a modified Neurological Severity Score (mNSS) system from a range of 0 to 18 (normal score, 0; maximal deficit score, 18). The mNSS system is a composite evaluation of motor and sensory function, balance impairment and reflex abnormality of ischemic animals. […]
3 days after ischemia, whole brains were rapidly removed, sliced into 2-mm-thick coronal sections, stained with 1% 2,3,5-triphenyltetrazoliumchloride (TTC) and fixed (FIG. 6a). […] Infarct volume was measured in the coronal brain sections.
Infarct volume and edema volume were also measured. […]

For `CC[C@H]1N[C@@H](CC(C)C)C(CC)(CC)O1` [LC-02], the “edema volume (% of the ipsilateral hemisphere)” value reads like this: (35 mg/kg) 2.44±0.43%; (70 mg/kg) 2.85±0.80%. For the same compound, the infarct volume is given as 34.45%±3.38% (35 mg/kg) and 18.49%±2.34% (70 mg/kg, P<0.01). Also, the “functional recovery, modified Neurological Severity Score (mNSS)” value (70 mg/kg oral, 24, 48 and 72 hours after MCAO, vs vehicle) was “significantly improved functional recovery”.
